# According to patent publication US20240108738A1, “BICYCLIC PEPTIDE LIGANDS SPECIFIC FOR NK CELLS” (Bicycle Tx Limited, priority 2021, published 2024):
# Read-outs that look alike come from different tables or passages of the source. Numbered stars: 1 amine (or outer) side, 2 acyl side, 3 side chain; on linkers, the order of the positions; unused ones are H or OH. Bridge positions count the residues as written; N and C are the ends. Square brackets hold non-standard residues; d marks the D form. Peptide text beside a SMILES is read from it. * marks the point of attachment. TATA = O=C(CC[*:1])N1CN(C(=O)CC[*:2])CN(C(=O)CC[*:3])C1; Biotin = O=C1N[C@H]2[C@H](CS[C@H]2CCCCC(=O)*)N1; Cba = N[C@@H](CC1CCC1)C(=O)O; Sar = CNCC(=O)O
# What was measured:
# [1] = target: CD16a (F Variant) (Homo sapiens, UniProt P08637); assay: FcγRIII (CD16a) SPR (Method A and/or Method B), F variant; type: binding
# [2] = target: CD16a (V Variant) (Homo sapiens, UniProt P08637, F176V); assay: FcγRIII (CD16a) SPR (Method A and/or Method B), V variant; type: binding
# [3] = target: T1, CD16a/FCgRIIIa (F158 variant) (Homo sapiens, UniProt P08637); assay: CD16a/FCgRIIIa HTRF assay (IgG competition on HEK293 cells); type: binding
# T1 construct: host or cells: HEK293
# [4] = target: T2, human NKp46-his tagged protein (Homo sapiens, UniProt O76036); assay: NKp46 Fluorescence Polarization (FP) competition binding assay, tracer BCY15035
# T2 construct: His tag; purchased AcroBiosystems
# [5] = target: T3, Fc-tagged human NKp46 (Homo sapiens, UniProt O76036); assay: NKp46 SPR assay (Method 1 and/or Method 2); type: binding; settings: SPR Method 1 and/or Method 2, Table 3B
# T3 construct: purchased ACROBiosystems NC1-H5257
# Method in brief: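 Method 1: biotinylated Avi-tag NKp46-Fc on streptavidin chip, peptides to 100-5000 nM top in PBS/0.05% Tween 20, 0.5% DMSO; 1:1 kinetic fit with mass transport. Method 2: NKp46-Fc captured by anti-Fc, PBS-P+ 2% DMSO; steady-state or kinetic 1:1 fit. Both 25° C, 50 μl/min, 60 s association.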
# [6] = system: human CD16a V176 variant; assay: IgG competition assay (AlphaScreen), V variant; type: binding; settings: N-terminally biotinylated CD16a V176 10 nM, mouse IgG2a acceptor beads
# [7] = SPR Method A and/or B, Table 6B, read-out: Kd (nM) (F Variant)
# [8] = SPR Method A and/or B, Table 6B, read-out: Kd (nM) (V Variant)
Compound,"Kd [1, 7] [nM]","Kd [2, 8] [nM]",further results
"CC(C)C[C@@H]1NC(=O)[C@@H]2CCCN2C(=O)[C@H](Cc2c[nH]cn2)NC(=O)[C@@H]2CSCCC(=O)N3CN(CN(C3)C(=O)CCSC[C@H](NC(=O)[C@H](C)N)C(=O)N3CCC[C@H]3C(=O)N3CCC[C@H]3C(=O)N[C@@H](C)C(=O)N[C@@H](C(C)C)C(=O)N[C@@H](Cc3ccc(O)cc3)C(=O)N2)C(=O)CCSC[C@@H](C(=O)N[C@@H](C)C(N)=O)NC(=O)[C@H](CC(=O)O)NC1=O [BCY11673, A-(SEQ ID NO: 169)-A] (H-ACPPAVYCHPLDCA-NH2; linker 2-8-13 via TATA; C-terminus assumed)",17100,3310,
"CC(C)C[C@@H]1NC(=O)[C@@H]2CCCN2C(=O)[C@H](Cc2c[nH]cn2)NC(=O)[C@@H]2CSCCC(=O)N3CN(CN(C3)C(=O)CCSC[C@H](NC(=O)[C@H](C)N)C(=O)N3CCC[C@H]3C(=O)N3CCC[C@H]3C(=O)N[C@@H](CCC(=O)O)C(=O)N[C@@H](C(C)C)C(=O)N[C@@H](Cc3ccccc3)C(=O)N2)C(=O)CCSC[C@@H](C(=O)N[C@@H](C)C(N)=O)NC(=O)[C@H](CC(=O)O)NC1=O [BCY11809, A-(SEQ ID NO: 170)-A] (H-ACPPEVFCHPLDCA-NH2; linker 2-8-13 via TATA; N-terminus and C-terminus assumed)",28600,4330,
"CC(C)C[C@@H]1NC(=O)[C@@H]2CCCN2C(=O)[C@H](Cc2c[nH]cn2)NC(=O)[C@@H]2CSCCC(=O)N3CN(CN(C3)C(=O)CCSC[C@H](NC(=O)[C@H](C)N)C(=O)N3CCC[C@H]3C(=O)N3CCC[C@H]3C(=O)N[C@@H](CCC(=O)O)C(=O)N[C@@H](C(C)C)C(=O)N[C@@H](Cc3ccc(O)cc3)C(=O)N2)C(=O)CCSC[C@@H](C(=O)N[C@@H](C)C(N)=O)NC(=O)[C@H](CC(=O)O)NC1=O [BCY11810, A-(SEQ ID NO: 171)-A] (H-ACPPEVYCHPLDCA-NH2; linker 2-8-13 via TATA)",3610,832,
"CC(C)C[C@@H]1NC(=O)[C@@H]2CCCN2C(=O)[C@H](Cc2c[nH]cn2)NC(=O)[C@@H]2CSCCC(=O)N3CN(CN(C3)C(=O)CCSC[C@H](NC(=O)[C@H](C)N)C(=O)N3CCC[C@H]3C(=O)N3CCC[C@H]3C(=O)N[C@@H](CCC(=O)O)C(=O)N[C@@H](C(C)C)C(=O)N[C@@H](Cc3c[nH]c4ccccc34)C(=O)N2)C(=O)CCSC[C@@H](C(=O)N[C@@H](C)C(=O)N(C)CC(=O)N(C)CC(=O)N(C)CC(=O)N(C)CC(=O)N(C)CC(=O)N(C)CC(=O)N[C@@H](CCCCNC(=O)CCCC[C@@H]2SC[C@@H]3NC(=O)N[C@@H]32)C(N)=O)NC(=O)[C@H](CC(=O)O)NC1=O [BCY12622, A-(SEQ ID NO: 174)-A-[Sar6]-[KBiot]] (H-ACPPEVWCHPLDCA[Sar][Sar][Sar][Sar][Sar][Sar]K(Biotin)-NH2; linker 2-8-13 via TATA; N-terminus assumed)",1000,4000,
"CC(C)C[C@@H]1NC(=O)[C@H](Cc2ccc(O)cc2)NC(=O)[C@H](CC(=O)O)NC(=O)[C@@H]2CCCN2C(=O)[C@H](CC2CCC2)NC(=O)[C@H](Cc2ccc(O)cc2)NC(=O)[C@@H](NC(=O)[C@H](C)N)CSCCC(=O)N2CN3CN(C2)C(=O)CCSC[C@@H](C(=O)N[C@@H](C)C(N)=O)NC(=O)[C@H](Cc2ccc(O)cc2)NC(=O)[C@H](CCC(=O)O)NC(=O)[C@H](CC(=O)O)NC(=O)CNC(=O)[C@H](CSCCC3=O)NC1=O [BCY15639, A-(SEQ ID NO: 16)-A] (H-ACY[Cba]PDYLCGDEYCA-NH2; linker 2-9-14 via TATA)",,,Ki [4]: 0.017 µM
"CC(C)C[C@@H]1NC(=O)[C@H](Cc2ccc(O)cc2)NC(=O)[C@@H](NC(=O)[C@H](C)N)CSCCC(=O)N2CN3CN(C2)C(=O)CCSC[C@@H](C(=O)N[C@@H](C)C(N)=O)NC(=O)[C@H](Cc2ccc(O)cc2)NC(=O)[C@H](CCC(=O)O)NC(=O)[C@H](CC(=O)O)NC(=O)CNC(=O)[C@H](CSCCC3=O)NC(=O)[C@H](CC(C)(C)C)NC(=O)[C@H](Cc2c[nH]c3ccccc23)NC(=O)[C@H](CC(=O)O)NC(=O)[C@@H]2CCCN2C1=O [BCY15648, A-(SEQ ID NO: 24)-A]",,,Ki [4]: 1.62 µM
"CC(C)C[C@@H]1NC(=O)[C@H](Cc2ccc(O)cc2)NC(=O)[C@H](CC(=O)O)NC(=O)[C@@H]2CCCN2C(=O)[C@H](CC(C)C)NC(=O)[C@H](Cc2ccc(O)cc2)NC(=O)[C@@H](NC(=O)[C@H](C)N)CSCCC(=O)N2CN3CN(C2)C(=O)CCSC[C@H](NC1=O)C(=O)N[C@H](C)C(=O)N[C@@H](CC(=O)O)C(=O)N[C@@H](CCC(=O)O)C(=O)N[C@@H](Cc1ccc(O)cc1)C(=O)N[C@H](C(=O)N[C@@H](C)C(N)=O)CSCCC3=O [BCY15650, A-(SEQ ID NO: 26)-A] (H-ACYLPDYLC[dA]DEYCA-NH2; linker 2-9-14 via TATA; N-terminus assumed)",,,Kd [5]: 0.01 ± 0.003 µM; Ki [4]: 0.016 µM
"C#CCCC(=O)NCCCC[C@H](NC(=O)[C@H](C)NC(=O)[C@@H]1CSCCC(=O)N2CN3CN(C2)C(=O)CCSC[C@H](NC(=O)[C@H](C)N)C(=O)N2CCC[C@H]2C(=O)N2CCC[C@H]2C(=O)N[C@@H]([C@@H](C)O)C(=O)N[C@@H](C(C)C)C(=O)N[C@@H](Cc2ccc(O)cc2)C(=O)N[C@@H](CSCCC3=O)C(=O)N[C@@H](Cc2c[nH]cn2)C(=O)N2CCC[C@H]2C(=O)N[C@@H](CC(C)C)C(=O)N[C@@H](CC(=O)O)C(=O)N1)C(N)=O [BCY15685, A-(SEQ ID NO: 60)-A-[K(PYA)]]",,,IC50 [6]: 3480 nM
"CC(=O)N[C@H]1CSCCC(=O)N2CN3CN(C2)C(=O)CCSC[C@H](NC(=O)[C@H](CC(C)C)NC(=O)[C@H](Cc2ccc(O)cc2)NC(=O)[C@H](CC(=O)O)NC(=O)[C@@H]2CCCN2C(=O)[C@H](CC2CCC2)NC(=O)[C@H](Cc2ccc(O)cc2)NC1=O)C(=O)N[C@H](C)C(=O)N[C@@H](CC(=O)O)C(=O)N[C@@H](CCC(=O)O)C(=O)N[C@@H](Cc1ccc(O)cc1)C(=O)N[C@H](C(N)=O)CSCCC3=O [BCY16133, Ac-(SEQ ID NO: 40)] (Ac-CY[Cba]PDYLC[dA]DEYC-NH2; linker 1-8-13 via TATA; C-terminus assumed)",,,Ki [4]: 0.01 µM
"CC(C)C[C@@H]1NC(=O)CNC(=O)[C@H](C(C)C)NC(=O)[C@@H](NC(=O)[C@H](C)N)CSCc2nc3nc(n2)CSC[C@H](NC(=O)[C@@H]2CCCN2C(=O)CNC(=O)[C@H](CC(C)C)NC(=O)[C@H](CCC(=O)O)NC(=O)[C@H](CCC(=O)O)NC1=O)C(=O)N[C@@H](CO)C(=O)N[C@@H](CC(=O)O)C(=O)N[C@@H](CC(C)C)C(=O)N[C@H](C(=O)N[C@@H](C)C(N)=O)CSC3 [BCY16493, A-(SEQ ID NO: 62)-A]",,,IC50 [3]: 4.79 µM; Kd [2]: 7330 nM
"CC(C)C[C@@H]1NC(=O)CNC(=O)[C@H](C(C)C)NC(=O)[C@@H](N)CSCc2nc3nc(n2)CSC[C@H](NC(=O)[C@@H]2CCCN2C(=O)CNC(=O)[C@H](CC(C)C)NC(=O)[C@H](CCC(=O)O)NC(=O)[C@H](CCC(=O)O)NC1=O)C(=O)N[C@@H](CO)C(=O)N[C@@H](CC(=O)O)C(=O)N[C@@H](CC(C)C)C(=O)N[C@H](C(N)=O)CSC3 [BCY16494, (SEQ ID NO: 62)]",,,Kd [1]: 2870 nM; Kd [2]: 2820 nM
"C[C@H](N)C(=O)N[C@H]1CSCc2nc3nc(n2)CSC[C@H](NC(=O)[C@@H]2CCCN2C(=O)[C@H](CCC(=O)O)NC(=O)[C@H](CO)NC(=O)[C@@H]2C[C@@H](O)CN2C(=O)[C@H](Cc2c[nH]cn2)NC(=O)[C@H](Cc2c[nH]c4ccccc24)NC(=O)[C@H](CCCNC(=N)N)NC1=O)C(=O)NCC(=O)N[C@@H](C)C(=O)N[C@@H](Cc1c[nH]c2ccccc12)C(=O)N[C@H](C(=O)N[C@@H](C)C(N)=O)CSC3 [BCY20383, A-(SEQ ID NO: 228)-A]",,,IC50 [3]: 1.11 µM

# The next lines start with results.
"Kd [1, 7] [nM]","Kd [2, 8] [nM]",Compound,further results
,3710,"CC(C)C[C@@H]1NC(=O)[C@@H]2CCCN2C(=O)[C@H](Cc2c[nH]cn2)NC(=O)[C@@H]2CSCCC(=O)N3CN(CN(C3)C(=O)CCSC[C@H](NC(=O)[C@H](C)N)C(=O)N3CCC[C@H]3C(=O)N3CCC[C@H]3C(=O)N[C@@H]([C@@H](C)O)C(=O)N[C@@H](C(C)C)C(=O)N[C@@H](Cc3ccc(O)cc3)C(=O)N2)C(=O)CCSC[C@@H](C(=O)N[C@@H](C)C(N)=O)NC(=O)[C@H](CC(=O)O)NC1=O [BCY11808, A-(SEQ ID NO: 60)-A]","IC50 ([3]; HTRF, competition with IgG-d2 on HEK293 cells expressing Terbium-labelled CD16a, 2 h at RT, read-out: IC50): 9.44 µM"
8240,1230,"CC(C)C[C@@H]1NC(=O)[C@@H]2CCCN2C(=O)[C@H](Cc2c[nH]cn2)NC(=O)[C@@H]2CSCCC(=O)N3CN(CN(C3)C(=O)CCSC[C@H](NC(=O)[C@H](C)N)C(=O)N3CCC[C@H]3C(=O)N3CCC[C@H]3C(=O)N[C@@H](CCC(=O)O)C(=O)N[C@@H](C(C)C)C(=O)N[C@@H](Cc3c[nH]c4ccccc34)C(=O)N2)C(=O)CCSC[C@@H](C(=O)N[C@@H](C)C(N)=O)NC(=O)[C@H](CC(=O)O)NC1=O [BCY11811, A-(SEQ ID NO: 172)-A] (H-ACPPEVWCHPLDCA-NH2; linker 2-8-13 via TATA)",
11800,2400,"CC(C)C[C@@H]1NC(=O)[C@@H]2CCCN2C(=O)[C@H](Cc2c[nH]cn2)NC(=O)[C@@H]2CSCCC(=O)N3CN(CN(C3)C(=O)CCSC[C@H](NC(=O)[C@H](C)N)C(=O)N3CCC[C@H]3C(=O)N3CCC[C@H]3C(=O)N[C@@H](CCC(N)=O)C(=O)N[C@@H](C(C)C)C(=O)N[C@@H](Cc3ccc(O)cc3)C(=O)N2)C(=O)CCSC[C@@H](C(=O)N[C@@H](C)C(N)=O)NC(=O)[C@H](CC(=O)O)NC1=O [BCY11812, A-(SEQ ID NO: 173)-A] (H-ACPPQVYCHPLDCA-NH2; linker 2-8-13 via TATA; C-terminus assumed)",
